{"source": "patent US20130303518A1", "about": "“Methods of Inhibiting the Catalytic Activity of a Protein Kinase and of Treating a Protein Kinase Related Disorder” (JIANGSU HANSOH PHARMACEUTICAL CO., LTD., priority 2007, published 2013)", "key": {"[1]": {"system": "HUVEC (human umbilical vein endothelial cells)", "test": "Inhibition of cancer cell proliferation assay (SRB)", "type": "cell-based", "conditions": "mean ± SD, 72 hours", "excerpt": "(§1) The cellular assay described here is to test the proliferation inhibition activity of the compound of Example 53 on the cancer cells in vitro using Sulforhodamine B (SRB) method. The cancer cells include HUVEC (human umbilical vein endothelial cells), HT-29 (human colon cancer cells), Mo7e (human megakaryoblastic leukemia cell line), A431 (human epidermoid carcinoma cells), NCI—H526 (small-cell lung cancer cells), and SK—BR-3 (human breast cancer cells).\nHUVEC cancer cell: American Type Culture Collection, Cat. No. CRL-1730\n(§2) The following in vitro assay is to determine the activity of the tested compound for inhibiting the proliferation of the cancer cells mentioned above. The activity is represented by the IC50 value. The general procedures of the assay are given as follows: Cancer cells mentioned above were chosen and seeded to 96-well cell culture plate at a suitable concentration (e.g., 5000 cells/mL medium). These cells then were incubated in carbon dioxide (CO2) incubator until they reached 85% confluency. […] 72 hours later, the activity of the tested compound for inhibiting the cell proliferation was determined by using Sulforhodamine B (SRB) method. IC50 value on tested cells is calculated by the data of inhibition rates of serial concentrations of the tested compound."}, "[2]": {"system": "HT-29 (human colon cancer cells)", "test": "Inhibition of cancer cell proliferation assay (SRB)", "type": "cell-based", "conditions": "mean ± SD, 72 hours", "excerpt": "as §1\nHT-29 cancer cell: Cell Bank, Chinese Academy of Sciences, TCHu103;\nas §2"}, "[3]": {"system": "Caki-1 (renal cancer)", "test": "Anticancer pharmacodynamic assay in vivo, xenograft", "design": "species or system nude mice", "conditions": "for T/C (%): relative tumor volume (%): Caki-1 xenograft, d0-22", "excerpt": "(§3) The test method and steps are the same with those disclosed in “PHARMACODYNAMIC ASSAYS IN VIVO” of the present invention. The therapeutic effects of the compound of Example 53 against xenografts of colon cancer, non-small cell lung cancer, liver cancer, melanoma, renal cancer in nude mice are estimated.\nCaki-1 (renal cancer): Cell Bank, Chinese Academy of Sciences, TCHu135.\n(§4) Nude mice were hypodermic inoculated HT-29 human colon cancer cell. After tumors grew to 100-300 mm^3, mice were randomly divided into teams (d0). The volume of tumors and weigh of the mice were measured for 2-3 times per week. The calculation formula of the volume of tumor (V) is: V=½×a×b^2, a: length of tumor, b: width of tumor."}, "[4]": {"system": "Bel-7402(liver cancer)", "test": "Anticancer pharmacodynamic assay in vivo, xenograft", "design": "species or system nude mice", "conditions": "for T/C (%): relative tumor volume (%): Bel-7402 xenograft", "excerpt": "as §3\nBel-7402(liver cancer): Cell Bank, Chinese Academy of Sciences, TCHu10;\nas §4"}, "[5]": {"system": "HT-29(colon cancer)", "test": "Anticancer pharmacodynamic assay in vivo, xenograft", "design": "species or system nude mice", "conditions": "for T/C (%): relative tumor volume (%): HT-29 xenograft, d0-20", "excerpt": "as §3\nHT-29(colon cancer): Cell Bank, Chinese Academy of Sciences, TCHu103;\nas §4"}, "[6]": {"system": "Calu-3(non-small cell lung cancer)", "test": "Anticancer pharmacodynamic assay in vivo, xenograft", "design": "species or system nude mice", "conditions": "for T/C (%): relative tumor volume (%) / Note: PR (partial regression), animals: Calu-3 xenograft, d0-20; for Note: PR (partial regression), animals: treatment group n = 6", "excerpt": "as §3\nCalu-3(non-small cell lung cancer): Cell Bank, Chinese Academy of Sciences, TCHu157;\nas §4"}, "[7]": {"system": "NCI—H460 (non-small cell lung cancer)", "test": "Anticancer pharmacodynamic assay in vivo, xenograft", "design": "species or system nude mice", "conditions": "for T/C (%): relative tumor volume (%): NCI-H460 xenograft, d0-13, P < 0.01 vs Control", "excerpt": "as §3\nNCI—H460 (non-small cell lung cancer): Cell Bank, Chinese Academy of Sciences, TCHu205;\nas §4"}, "[8]": {"target": "T1, PDGFRβ (Homo sapiens, UniProt P09619)", "T1 construct": "purchased invitrogen PV3082", "T1 sequence (P09619 33-1106)": "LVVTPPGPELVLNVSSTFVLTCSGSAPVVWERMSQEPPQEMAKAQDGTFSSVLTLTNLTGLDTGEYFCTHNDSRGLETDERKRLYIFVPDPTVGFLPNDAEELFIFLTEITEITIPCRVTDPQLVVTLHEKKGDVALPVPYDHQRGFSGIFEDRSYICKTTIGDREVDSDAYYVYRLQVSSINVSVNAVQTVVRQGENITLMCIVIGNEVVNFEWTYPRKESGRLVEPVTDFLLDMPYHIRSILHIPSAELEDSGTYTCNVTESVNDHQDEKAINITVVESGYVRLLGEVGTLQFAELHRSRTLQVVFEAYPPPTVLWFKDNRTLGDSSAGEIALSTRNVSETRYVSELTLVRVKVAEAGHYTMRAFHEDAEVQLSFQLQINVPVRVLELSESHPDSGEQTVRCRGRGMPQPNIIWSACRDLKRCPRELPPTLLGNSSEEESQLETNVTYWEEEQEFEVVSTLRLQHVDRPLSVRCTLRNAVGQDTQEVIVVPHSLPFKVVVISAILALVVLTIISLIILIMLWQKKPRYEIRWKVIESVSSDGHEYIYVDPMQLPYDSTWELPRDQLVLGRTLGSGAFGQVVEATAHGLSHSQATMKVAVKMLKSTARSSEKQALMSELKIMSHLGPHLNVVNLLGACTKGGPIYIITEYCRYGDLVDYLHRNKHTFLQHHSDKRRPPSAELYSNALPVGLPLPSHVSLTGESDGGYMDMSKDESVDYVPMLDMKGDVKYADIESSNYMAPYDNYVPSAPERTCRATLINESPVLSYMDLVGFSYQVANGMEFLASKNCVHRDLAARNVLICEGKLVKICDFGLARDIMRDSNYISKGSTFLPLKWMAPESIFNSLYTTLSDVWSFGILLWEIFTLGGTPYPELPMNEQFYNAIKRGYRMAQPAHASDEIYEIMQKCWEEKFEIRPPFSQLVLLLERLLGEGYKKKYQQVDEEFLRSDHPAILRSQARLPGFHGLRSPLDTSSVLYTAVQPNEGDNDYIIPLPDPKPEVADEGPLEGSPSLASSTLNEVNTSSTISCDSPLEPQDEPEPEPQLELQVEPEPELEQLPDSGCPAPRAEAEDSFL", "test": "Inhibition of receptor tyrosine kinases activity assay", "type": "biochemical"}, "[9]": {"system": "Mo7e (human megakaryoblastic leukemia cell line)", "test": "Inhibition of cancer cell proliferation assay (SRB)", "type": "cell-based", "conditions": "mean ± SD, 72 hours", "excerpt": "as §1\nMo7e cancer cell: originally described by Avanzi et al. ((1988) Br. J. Haematol. 69:359-366), was obtained from Genetics Institute (Boston, Mass.) and was maintained in Iscove's modified Dulbecco's medium (Life Technologies, Inc.);\nas §2, with “medium).” for “medium). These cells then were incubated in carbon dioxide (CO2) incubator until they reached 85% confluency.”"}, "[10]": {"target": "T2, c-Kit (Homo sapiens, UniProt P10721)", "T2 construct": "purchased invitrogen PV3081", "T2 sequence (P10721 26-976)": "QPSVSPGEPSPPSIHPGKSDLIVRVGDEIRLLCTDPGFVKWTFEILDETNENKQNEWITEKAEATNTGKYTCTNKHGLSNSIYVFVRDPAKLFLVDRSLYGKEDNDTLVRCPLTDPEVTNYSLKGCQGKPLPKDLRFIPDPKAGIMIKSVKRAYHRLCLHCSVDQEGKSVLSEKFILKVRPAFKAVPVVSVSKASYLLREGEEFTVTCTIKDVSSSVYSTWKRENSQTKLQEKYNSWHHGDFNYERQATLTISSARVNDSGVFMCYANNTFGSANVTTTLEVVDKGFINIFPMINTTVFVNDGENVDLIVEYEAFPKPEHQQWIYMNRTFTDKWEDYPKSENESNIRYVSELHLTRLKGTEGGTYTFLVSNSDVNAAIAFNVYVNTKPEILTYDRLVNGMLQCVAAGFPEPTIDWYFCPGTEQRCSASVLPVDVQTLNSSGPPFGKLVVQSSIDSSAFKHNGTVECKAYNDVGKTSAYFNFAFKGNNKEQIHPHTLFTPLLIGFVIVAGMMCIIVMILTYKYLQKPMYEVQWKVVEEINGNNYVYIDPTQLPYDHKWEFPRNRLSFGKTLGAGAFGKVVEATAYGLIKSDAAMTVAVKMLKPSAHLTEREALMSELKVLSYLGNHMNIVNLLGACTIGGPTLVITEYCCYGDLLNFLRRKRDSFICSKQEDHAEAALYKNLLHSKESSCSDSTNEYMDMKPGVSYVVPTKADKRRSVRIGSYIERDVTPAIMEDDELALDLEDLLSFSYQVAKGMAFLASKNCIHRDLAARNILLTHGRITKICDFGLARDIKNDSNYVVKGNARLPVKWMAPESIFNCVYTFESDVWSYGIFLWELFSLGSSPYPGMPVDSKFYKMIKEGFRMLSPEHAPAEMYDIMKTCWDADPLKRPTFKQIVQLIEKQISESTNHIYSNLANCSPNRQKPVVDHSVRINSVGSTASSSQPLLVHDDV", "test": "Inhibition of receptor tyrosine kinases activity assay", "type": "biochemical"}, "[11]": {"system": "A375 (melanoma)", "test": "Anticancer pharmacodynamic assay in vivo, xenograft", "design": "species or system nude mice", "conditions": "for T/C (%): relative tumor volume (%): A375 xenograft", "excerpt": "as §3\nA375 (melanoma): Cell Bank, Chinese Academy of Sciences, TCHu4;\nas §4"}, "[12]": {"conditions": "mean ± SD, 20 μM ATP, 25° C., 45 minutes"}}, "note": "Marks after values point to notes of the source that are not given here.", "data": [{"smiles": "Cc1c(/C=C2\\C(=O)Nc3ccc(F)cc32)[nH]c2c1C(=O)N(C[C@H](O)CN1CCOCC1)CCC2", "note": "[Example 53, (R,Z)-2-(5-Fluoro-2-oxo-1,2-dihydro-indol-3-ylidenemethyl)-5-(2-hydroxy-3-morpholin-4-yl-propyl)-3-methyl-5,6,7,8-tetrahydro-1H-pyrrolo[3,2-c]azepin-4-one]", "values": [{"measurement": "IC50", "setting": "[1]", "value": 1100, "unit": "nM"}, {"measurement": "IC50", "setting": "[2]", "value": "2400 ± 1600", "unit": "nM"}, {"measurement": "anticancer activity against xenograft (in words)", "setting": "[3]; Caki-1 xenograft in nude mice", "value": "obvious anticancer activity"}, {"measurement": "T/C (%): relative tumor volume (%)", "setting": "[3]; 15 mg/kg p.o", "value": 73.0, "unit": "%"}, {"measurement": "T/C (%): relative tumor volume (%)", "setting": "[3]; 30 mg/kg p.o", "value": 45.5, "unit": "%"}, {"measurement": "T/C (%): relative tumor volume (%)", "setting": "[3]; 60 mg/kg p.o", "value": 36.8, "unit": "%"}, {"measurement": "anticancer activity against xenograft (in words)", "setting": "[4]; Bel-7402 xenograft in nude mice", "value": "obvious anticancer activity"}, {"measurement": "T/C (%): relative tumor volume (%)", "setting": "[4]; 15 mg/kg p.o d0-17", "value": 39.8, "unit": "%"}, {"measurement": "T/C (%): relative tumor volume (%)", "setting": "[4]; 30 mg/kg p.o d0-17", "value": 29.2, "unit": "%"}, {"measurement": "T/C (%): relative tumor volume (%)", "setting": "[4]; 60 mg/kg p.o d0-17", "value": 13.3, "unit": "%"}, {"measurement": "anticancer activity against xenograft (in words)", "setting": "[5]; HT-29 xenograft in nude mice", "value": "obvious anticancer activity"}, {"measurement": "T/C (%): relative tumor volume (%)", "setting": "[5]; 15 mg/kg p.o", "value": 49.4, "unit": "%"}, {"measurement": "T/C (%): relative tumor volume (%)", "setting": "[5]; 30 mg/kg p.o", "value": 48.5, "unit": "%"}, {"measurement": "T/C (%): relative tumor volume (%)", "setting": "[5]; 60 mg/kg p.o", "value": 31.6, "unit": "%"}, {"measurement": "anticancer activity against xenograft (in words)", "setting": "[6]; Calu-3 xenograft in nude mice", "value": "obvious anticancer activity"}, {"measurement": "T/C (%): relative tumor volume (%)", "setting": "[6]; 15 mg/kg p.o", "value": 26.3, "unit": "%"}, {"measurement": "T/C (%): relative tumor volume (%)", "setting": "[6]; 30 mg/kg p.o", "value": 14.7, "unit": "%"}, {"measurement": "Note: PR (partial regression), animals", "setting": "[6]; 30 mg/kg p.o", "value": "3/6(PR)"}, {"measurement": "T/C (%): relative tumor volume (%)", "setting": "[6]; 60 mg/kg p.o", "value": 16.1, "unit": "%"}, {"measurement": "Note: PR (partial regression), animals", "setting": "[6]; 60 mg/kg p.o", "value": "3/6(PR)"}, {"measurement": "T/C (%): relative tumor volume (%)", "setting": "[7]; 15 mg/kg p.o", "value": "41.1* %"}, {"measurement": "T/C (%): relative tumor volume (%)", "setting": "[7]; 30 mg/kg p.o", "value": "46.3* %"}, {"measurement": "T/C (%): relative tumor volume (%)", "setting": "[7]; 60 mg/kg p.o", "value": "58.4* %"}, {"measurement": "anticancer activity against xenograft (in words)", "setting": "[7]; NCI—H460 xenograft in nude mice", "value": "obvious anticancer activity"}, {"measurement": "inhibition of kinase activity (in words)", "setting": "[8]; PDGFRβ", "value": "obvious activity"}, {"measurement": "IC50", "setting": "[8]; [12]", "value": "41.5 ± 22.7", "unit": "nM"}, {"measurement": "IC50", "setting": "[9]", "value": 800, "unit": "nM"}, {"measurement": "inhibition of kinase activity (in words)", "setting": "[10]; c-Kit", "value": "obvious activity"}, {"measurement": "IC50", "setting": "[10]; [12]", "value": "3.3 ± 3.6", "unit": "nM"}, {"measurement": "anticancer activity against xenograft (in words)", "setting": "[11]; A375 xenograft in nude mice", "value": "obvious anticancer activity"}, {"measurement": "T/C (%): relative tumor volume (%)", "setting": "[11]; 15 mg/kg p.o d0-16", "value": 82.5, "unit": "%"}, {"measurement": "T/C (%): relative tumor volume (%)", "setting": "[11]; 30 mg/kg p.o d0-16", "value": 58.5, "unit": "%"}, {"measurement": "T/C (%): relative tumor volume (%)", "setting": "[11]; 60 mg/kg p.o d0-16", "value": 46.4, "unit": "%"}]}]}
